Test results reported in PMC9785925, “Solubility and Thermal Stability of Thermotoga maritima MreB” (International Journal of Molecular Sciences, 2022).

Key:
Format in all cases: binding
[1] = target: T1, Tm-MreB (Thermotoga maritima, UniProt Q9WZ57); assay: thermal denaturation, tryptophan fluorescence; settings: 2 mM ATP, salt-free (4 mM TRIS-HCl, 0.1 mM CaCl2, pH 7.5); printed as 90 °C≤
T1 construct: recombinant in E. coli ArcticExpress (DE3), Ni-NTA purified, His-tag removed with PreScission protease; native purification
T1 sequence (Q9WZ57 1-336): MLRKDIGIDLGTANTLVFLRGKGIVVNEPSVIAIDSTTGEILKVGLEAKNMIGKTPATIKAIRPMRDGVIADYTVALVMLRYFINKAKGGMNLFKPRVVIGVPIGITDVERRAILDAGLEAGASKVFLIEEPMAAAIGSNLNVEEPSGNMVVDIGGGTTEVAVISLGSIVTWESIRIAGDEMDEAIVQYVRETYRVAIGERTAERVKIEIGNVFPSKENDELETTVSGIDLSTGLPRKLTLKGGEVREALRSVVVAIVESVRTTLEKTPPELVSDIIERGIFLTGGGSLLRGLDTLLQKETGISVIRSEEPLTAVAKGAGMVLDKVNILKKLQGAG
Description: thermal denaturation, tryptophan fluorescence on Tm-MreB

[2] = target: T1, Tm-MreB; assay: competition with TNP-ATP fluorescence, Langmuir single-site fit; settings: salt-free (4 mM TRIS-HCl, 0.1 mM CaCl2, pH 7.5), 20 µM protein, 1 µM TNP-ATP; competitive; unreliable (text and figure legend disagree)
Description: competition with TNP-ATP fluorescence, Langmuir single-site fit on Tm-MreB | we were able to determine the affinity of ATP for Tm-MreB

[3] = target: T1, Tm-MreB; assay: TNP-ATP fluorescence titration, Hill fit

| This Work (Tryptophan Signal) [1] [°C] | affinity [2] | Compound | Kd [3] [µM] |
| --- | --- | --- | --- |
| > 90 | ~ 2 µM | Nc1ncnc2c1ncn2[C@@H]1O[C@H](COP(=O)(O)OP(=O)(O)OP(=O)(O)O)[C@@H](O)[C@H]1O [ATP] | – |
| – | – | Nc1ncnc2c1ncn2[C@@H]1O[C@H](COP(=O)(O)OP(=O)(O)OP(=O)(O)O)[C@H]2OC3(O[C@H]21)C([N+](=O)[O-])=CC(=[N+]([O-])[O-])C=C3[N+](=O)[O-] (stereo partly drawn) [TNP-ATP] | 3.69 ± 0.04 |
